Laboratory results: patent US7566736B2, “Substituted indoles, compositions containing them, method for the production thereof and their use” (Aventis Pharma S.A., priority 2004, dated 2009)

Tests used:
human KDR enzyme = target: T1, human KDR enzyme (Homo sapiens, UniProt P35968); experiment: phosphorylation of substrate by the KDR enzyme in vitro, scintillation technique; type: biochemical; conditions: read-out: KDR IC 50
T1 construct: The cytoplasmic domain of the human KDR enzyme was cloned in the form of a GST fusion; GST; made in house; host or cells: SF21 insect cells (baculovirus, pFastBac)
Procedure: The inhibitory effect of the compounds is determined in an assay for phosphorylation of substrate by the KDR enzyme in vitro using a scintillation technique (96-well plate, NEN).
The cytoplasmic domain of the human KDR enzyme was cloned in the form of a GST fusion into the baculovirus expression vector pFastBac. The protein was expressed in SF21 cells and purified to approximately 60% homogeneity.
The kinase activity of KDR is measured in 20 mM MOPS, 10 mM MgCl2, 10 mM MnCl2, 1 mM DTT, 2.5 mM EGTA, 10 mM β-glycerophosphate, pH=7.2, in the presence of 10 mM MgCl2, 100 μM Na3VO4, 1 mM NaF. 10 μl of the compound are added to 70 μl of kinase buffer containing 100 ng of KDR enzyme at 4° C. The reaction is initiated by adding 20 μl of solution containing 2 μg of substrate (SH2-SH3 fragment of PLCγ expressed in the form of a GST fusion protein), 2 μCi γ ^33P[ATP] and 2 μM cold ATP. After incubation at 37° C. for 1 hour, the reaction is stopped by adding 1 volume (100 μl) of 200 mM EDTA. The incubation buffer is removed and the wells are washed three times with 300 μl of PBS. The radioactivity is measured in each well using a Top Count NXT radioactivity counter (Packard).
The background noise is determined by measuring the radioactivity in four different wells containing the radioactive ATP and the substrate alone.
A control for total activity is measured in four different wells containing all the reactants (γ^33P-[ATP], KDR and PLCY substrate) but in the absence of compound.
The inhibition of the KDR activity with the compound of the invention is expressed as percentage inhibition of the control activity determined in the absence of compound.
The compound SU5614 (Calbiochem) (1 μM) is included in each plate as an inhibition control.

human Tie2 = target: T2, human Tie2 (Homo sapiens, UniProt Q02763); experiment: phosphorylation of PLC by Tie2 (GST-Tie2), FlashPlate; type: biochemical; conditions: read-out: TIE2 IC 50
T2 construct: corresponding to the intracellular domain amino acids 776-1124 was generated by PCR; made in house; host or cells: baculovirus expression vector pFastBacGT
Procedure: The human Tie2 coding sequence corresponding to the intracellular domain amino acids 776-1124 was generated by PCR using the cDNA isolated from human placenta as a model. This sequence was introduced into a baculovirus expression vector pFastBacGT in the form of a GST fusion protein.
The inhibitory effect of the molecules is determined in an assay for phosphorylation of PLC by Tie2 in the presence of GST-Tie2 purified to approximately 80% homogeneity. The substrate is made up of the SH2-SH3 fragments of PLC expressed in the form of a GST fusion protein.
The kinase activity of Tie2 is measured in a 20 mM MOPS buffer, pH 7.2, containing 10 mM MgCl2, 10 mM MnCl2, 1 mM DTT and 10 mM of glycerophosphate. A reaction mixture made up to 70 μl of kinase buffer containing 100 ng of GST-Tie2 enzyme is deposited into each well of a 96-well FlashPlate kept on ice. 10 μl of the test molecule diluted in DMSO at a maximum concentration of 10% are then added. For a given concentration, each measurement is determined in quadruplicate. The reaction is initiated by adding 20 μl of solution containing 2 μg of GST-PLC, 2 μM of cold ATP and 1 μCi of ^33P [ATP]. After incubation at 37° C. for 1 hour, the reaction is stopped by adding 1 volume (100 μl) of 200 mM EDTA. After the incubation buffer has been removed, the wells are washed three times with 300 μl of PBS. The radioactivity is measured on a Wallac MicroBeta 1450.
The inhibition of the Tie2 activity is calculated and expressed as percentage inhibition with respect to the control activity determined in the absence of compound.

FAK = FAK (Homo sapiens, UniProt Q05397); experiment: FAK inhibition; type: biochemical
Chain of FAK (Q05397 whole entry, species assumed): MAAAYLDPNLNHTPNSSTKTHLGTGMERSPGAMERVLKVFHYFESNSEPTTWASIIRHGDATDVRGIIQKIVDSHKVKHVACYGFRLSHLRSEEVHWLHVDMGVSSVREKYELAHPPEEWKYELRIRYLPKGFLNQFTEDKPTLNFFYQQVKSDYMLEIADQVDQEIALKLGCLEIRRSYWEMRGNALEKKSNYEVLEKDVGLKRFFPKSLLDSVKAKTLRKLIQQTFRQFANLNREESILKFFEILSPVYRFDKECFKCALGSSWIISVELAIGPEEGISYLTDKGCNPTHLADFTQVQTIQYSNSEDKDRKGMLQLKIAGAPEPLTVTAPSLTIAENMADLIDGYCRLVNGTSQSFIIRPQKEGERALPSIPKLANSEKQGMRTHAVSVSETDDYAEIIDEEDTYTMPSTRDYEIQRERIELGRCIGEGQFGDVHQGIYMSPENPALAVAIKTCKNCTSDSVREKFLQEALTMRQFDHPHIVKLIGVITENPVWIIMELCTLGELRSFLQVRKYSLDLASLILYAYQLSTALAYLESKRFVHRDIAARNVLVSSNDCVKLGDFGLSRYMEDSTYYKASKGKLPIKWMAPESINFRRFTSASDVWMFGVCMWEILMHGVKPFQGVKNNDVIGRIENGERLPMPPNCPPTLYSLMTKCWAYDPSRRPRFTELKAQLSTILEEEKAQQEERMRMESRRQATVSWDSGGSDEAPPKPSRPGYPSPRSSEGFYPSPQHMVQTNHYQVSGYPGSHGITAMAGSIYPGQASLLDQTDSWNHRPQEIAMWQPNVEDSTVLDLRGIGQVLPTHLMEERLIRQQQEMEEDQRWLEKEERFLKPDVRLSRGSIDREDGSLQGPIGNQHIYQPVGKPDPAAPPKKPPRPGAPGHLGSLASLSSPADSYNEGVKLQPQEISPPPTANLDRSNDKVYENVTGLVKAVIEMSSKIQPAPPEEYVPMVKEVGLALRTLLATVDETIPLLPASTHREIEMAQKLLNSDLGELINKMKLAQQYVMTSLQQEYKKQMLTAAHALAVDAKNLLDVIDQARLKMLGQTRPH

T2 sequence (Q02763 776-1124): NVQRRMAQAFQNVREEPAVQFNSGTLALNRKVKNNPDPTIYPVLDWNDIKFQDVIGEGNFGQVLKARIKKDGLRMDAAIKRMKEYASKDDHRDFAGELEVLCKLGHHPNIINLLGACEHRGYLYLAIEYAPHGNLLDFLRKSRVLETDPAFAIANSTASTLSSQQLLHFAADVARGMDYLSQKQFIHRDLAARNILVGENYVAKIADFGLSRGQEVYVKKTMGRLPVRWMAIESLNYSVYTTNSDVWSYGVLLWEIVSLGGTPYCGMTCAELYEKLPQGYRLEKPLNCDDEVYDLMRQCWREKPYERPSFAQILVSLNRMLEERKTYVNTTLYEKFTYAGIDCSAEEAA
T1 sequence (P35968 786-1356 limits assumed): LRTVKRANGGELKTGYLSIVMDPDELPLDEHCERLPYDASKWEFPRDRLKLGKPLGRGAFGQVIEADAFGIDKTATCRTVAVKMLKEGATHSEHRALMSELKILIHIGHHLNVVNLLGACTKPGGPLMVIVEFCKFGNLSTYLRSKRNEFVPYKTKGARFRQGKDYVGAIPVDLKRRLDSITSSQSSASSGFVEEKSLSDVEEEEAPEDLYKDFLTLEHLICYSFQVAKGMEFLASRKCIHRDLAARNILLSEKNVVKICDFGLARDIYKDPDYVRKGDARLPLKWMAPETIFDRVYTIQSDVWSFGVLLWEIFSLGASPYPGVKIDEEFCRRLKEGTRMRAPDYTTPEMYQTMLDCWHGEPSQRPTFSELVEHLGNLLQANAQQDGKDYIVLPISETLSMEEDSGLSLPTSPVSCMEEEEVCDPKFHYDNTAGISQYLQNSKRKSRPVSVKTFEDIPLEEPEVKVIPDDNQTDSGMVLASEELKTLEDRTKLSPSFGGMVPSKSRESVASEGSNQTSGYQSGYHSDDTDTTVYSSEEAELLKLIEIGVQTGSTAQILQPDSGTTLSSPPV

| IC50 (human KDR enzyme) [nM] | IC50 (human Tie2) [nM] | melting point [°C] | IC50 (FAK) [nM] | SMILES |
| --- | --- | --- | --- | --- |
| 35 | 3 | 240 to 242 | – | NC(=O)c1[nH]c2ccccc2c1-c1ccc(NC(=O)Nc2cc(C(F)(F)F)ccc2F)cc1 [Example 1, 3-{4-[3-(2-Fluoro-5-trifluoromethylphenyl)-ureido]phenyl}-1H-indole-2-carboxamide] |
| 12 | 4 | 206 to 208 | – | NC(=O)c1[nH]c2cccnc2c1-c1ccc(NC(=O)Nc2cc(C(F)(F)F)ccc2F)cc1 [Example 2, 3-{4-[3-(2-Fluoro-5-trifluoromethylphenyl)-ureido]phenyl}-1H-pyrrolo[3,2-b]pyridine-2-carboxamide] |
| 1520 | 296 | 232 to 234 | – | NC(=O)c1[nH]c2ccccc2c1-c1ccc(NC(=O)Nc2ccccc2)cc1 [Example 3, 3-[4-(3-Phenylureido)phenyl]-1H-indole-2-carboxamide] |
| 181 | 19 | 140 to 142 | – | Cc1cccc(NC(=O)Nc2ccc(-c3c(C(N)=O)[nH]c4ccccc34)cc2)c1 [Example 4, 3-[4-(3-m-Tolylureido)phenyl]-1H-indole-2-carboxamide] |
| 50 | 6 | 156 to 158 | – | NC(=O)c1[nH]c2ccccc2c1-c1ccc(NC(=O)Nc2cccc(C(F)(F)F)c2)cc1 [Example 5, 3-[4-(3-Trifluoromethylphenylureido)phenyl]-1H-indole-2-carboxamide] |
| 47 | 16 | 168 to 170 | – | Cc1cc(C)cc(NC(=O)Nc2ccc(-c3c(C(N)=O)[nH]c4ccccc34)cc2)c1 [Example 6, 3-[4-(3,5-Dimethylphenylureido)phenyl]-1H-indole-2-carboxamide] |
| 1750 | 142 | 146 to 148 | – | NC(=O)c1[nH]c2ccccc2c1-c1ccc(NC(=O)Nc2ccccc2F)cc1 [Example 7, 3-[4-(2-Fluorophenylureido)phenyl]-1H-indole-2-carboxamide] |
| 260 | 27 | > 260 | – | Cn1c(C(N)=O)c(-c2ccc(NC(=O)Nc3cc(C(F)(F)F)ccc3F)cc2)c2ccccc21 [Example 8, 3-{4-[3-(2-Fluoro-5-trifluoromethylphenyl)-ureido]phenyl}-1-methyl-1H-indole-2-carboxamide] |
| 138 | 17 | 168 to 170 | – | NC(=O)c1[nH]c2ccccc2c1-c1ccc(NC(=O)Nc2ccc(C(F)(F)F)c(Cl)c2)cc1 [Example 9, 3-{4-[3-(3-Chloro-4-trifluoromethylphenyl)-ureido]phenyl}-1H-indole-2-carboxamide] |
| 37 | 3 | 176 to 178 | 303 | CC(C)(C)c1cc(NC(=O)Nc2ccc(-c3c(C(N)=O)[nH]c4ccccc34)cc2)no1 [Example 10, 3-{4-[3-(5-tert-butylisoxazol-3-yl)ureido]-phenyl}-1H-indole-2-carboxamide] |
| 153 | 105 | 162 to 164 | – | NC(=O)c1[nH]c2ccccc2c1-c1ccc(NC(=O)Nc2ccc(OC(F)(F)F)cc2)cc1 [Example 11, 3-{4-[3-(4-Trifluoromethoxyphenyl)ureido]-phenyl}-1H-indole-2-carboxamide] |
| – | – | 178 to 180 | – | COc1ccc(C(F)(F)F)cc1NC(=O)Nc1ccc(-c2c(C(N)=O)[nH]c3ccccc23)cc1 [Example 12, 3-{4-[3-(2-Methoxy-5-trifluoromethylphenyl)ureido]phenyl}-1H-indole-2-carboxamide] |
| – | – | 176 to 178 | – | NC(=O)c1[nH]c2ccccc2c1-c1ccc(NS(=O)(=O)c2cc(C(F)(F)F)ccc2F)cc1 [Example 13, 3-[4-(2-Fluoro-5-trifluoromethylbenzenesulfonylamino)phenyl]-1H-indole-2-carboxamide] |
| – | – | > 260 | – | NC(=O)c1[nH]c2ccccc2c1-c1ccc(NS(=O)(=O)c2cccc(Cl)c2Cl)cc1 [Example 14, 3-[4-(2,3-Dichlorobenzenesulfonylamino)-phenyl]-1H-indole-2-carboxamide] |
| – | – | > 260 | – | Cc1ccc(-n2nc(C(C)(C)C)cc2NC(=O)Nc2ccc(-c3c(C(N)=O)[nH]c4ccccc34)cc2)cc1 [Example 15, 3-{4-[3-(5-tert-Butyl-2-p-tolyl-2H-pyrazol-3-yl)ureido]phenyl}-1H-indole-2-carboxamide] |
| – | – | 220 | – | Cc1ccc(F)c(NC(=O)Nc2ccc(-c3c(C(N)=O)[nH]c4ccccc34)cc2)c1 [Example 16] |
| 1890 | 220 | – | – | NC(=O)c1[nH]c2ccccc2c1-c1ccc(NC(=O)Nc2cc(C(F)(F)F)ccc2CN2CCCC2)cc1 [Example 19, 3-{4-[3-(2-Pyrrolidin-1-ylmethyl-5-trifluoromethylphenyl)ureido]phenyl}-1H-indole-2-carboxamide] |
| 234 | 59 | – | – | COCc1ccc(C(F)(F)F)cc1NC(=O)Nc1ccc(-c2c(C(N)=O)[nH]c3ccccc23)cc1 [Example 20, 3-{4-[3-(2-Methoxymethyl-5-trifluoromethylphenyl)ureido]phenyl}-1H-indole-2-carboxamide] |
| 195 | 32 | – | – | NC(=O)c1[nH]c2ccc[n+]([O-])c2c1-c1ccc(NC(=O)Nc2cc(C(F)(F)F)ccc2F)cc1 [Example 21, 3-{4-[3-(2-Fluoro-5-trifluoromethylphenyl)-ureido]phenyl}-4-oxy-1H-pyrrolo[3,2-b]pyridine-2-carboxamide] |
| 90 | 7 | – | – | COCCOc1ccc2c(-c3ccc(NC(=O)Nc4cc(C(F)(F)F)ccc4F)cc3)c(C(N)=O)[nH]c2c1 [Example 23, 3-{4-[3-(2-Fluoro-5-trifluoromethylphenyl)-ureido]phenyl}-6-(2-methoxyethoxy)-1H-indole-2-carboxamide] |
| 31 | 7 | – | – | NC(=O)c1[nH]c2c(N)cccc2c1-c1ccc(NC(=O)Nc2cc(C(F)(F)F)ccc2F)cc1 [Example 30, 7-Amino-3-{4-[3-(2-fluoro-5-trifluoromethylphenyl)ureido]phenyl}-1H-indole-2-carboxamide] |
| 75 | 6 | – | – | NC(=O)c1[nH]c2c(NCCO)cccc2c1-c1ccc(NC(=O)Nc2cc(C(F)(F)F)ccc2F)cc1 [Example 31, 3-{4-[3-(2-Fluoro-5-trifluoromethylphenyl)-ureido]phenyl}-7-(2-hydroxyethylamino)-1H-indole-2-carboxamide] |
| 144 | 28 | – | – | CN(C)CC(=O)Nc1cccc2c(-c3ccc(NC(=O)Nc4cc(C(F)(F)F)ccc4F)cc3)c(C(N)=O)[nH]c12 [Example 32, 7-(2-Dimethylaminoacetylamino)-3-{4-[3-(2-fluoro-5-trifluoromethylphenyl)ureido]phenyl}-1H-indole-2-carboxamide] |
| 199 | 291 | – | – | NC(=O)c1[nH]c2ccccc2c1-c1ccc(NC(=O)Nc2ccc(OC(F)F)cc2)cc1 [Example 37, 3-{4-[3-(4-Difluoromethoxy-phenyl)ureido]phenyl}-1H-indole-2-carboxamide] |
| 153 | 151 | – | – | CC(C)c1ccc(NC(=O)Nc2ccc(-c3c(C(N)=O)[nH]c4ccccc34)cc2)cc1 [Example 53, 3-{4-[3-(4-Isopropyl-phenyl)ureido]phenyl}-1H-indole-2-carboxamide] |
